{"source": "patent EP2921176A2", "about": "“PHARMACEUTICAL COMPOSITION FOR TREATMENT OF PROSTATIC HYPERPLASIA” (priority 2012, dated 2014)", "key": {"prostate": {"tested_on": "prostate", "details": "after 1 to 3 months; cited from earlier work"}, "[1]": {"tested_on": "prostate gland of rats with BPH", "assay": "Morphological and morphometric (light-optical) analysis of the prostate gland in the rat BPH model", "type": "in vivo", "set-up": "key to COLL (score estimate of the content of collagen in the stroma, median): 0: Absent in the field of vision; 1: Thin friable fibers; 2: Thin oriented bunches; 3: Dense interlayers; 4: Zones of fibrosis", "details": "for EPIT (volume fraction of the epithelium) / LUMEN (volume fraction of acinar lumens) / STROMA (volume fraction of stroma): mean ± standard error of the mean", "excerpt": "The material was subjected to standard histological processing in accordance with Example 2. Sections were stained according to Van Gieson, as well as with hematoxyline and eosin. In addition to the morphological description of the preparations, a quantitative analysis of the most important morphological parameters of the PG (Table 2) to assess the dynamics of morphological changes. The prostate's functional status (fibrosis, epithelium hyperplasia, retention of the prostatic fluid in acinuses) can be assessed using the epithelium/stroma and epithelium/duct indices. Table 2. Classes of morphological analysis\nThe morphometric analysis was conducted using a Leica DM2500 microscope fitted with a digital photographic camera. The digital images were used to assess structural changes in PG tissues. Volume fractions of acinuses, stroma and epithelium were defined by point counting. Scoring was used to more accurately determine the quantity of collagen fibers because of their small percentage share (around 1-2%) (Table 3). Table 3. The criteria for scoring the quantity of collagen fibers\nA comparison of the groups in terms of different parameters using the Kruskal-Wallis one-way analysis of variance by ranks, Dan and Wilcoxon-Mann-Whitney test data were obtained on intergroup differences at the set level of significance of p < 0,05. […]\n(§1) The animals in those groups were injected intramuscularly (i/m) a mixture of peptides in doses of 50, 150 and 600 mcg/kg/day, alpha1-adrenergic blocker Doxazosin (Zoxon, Zentiva a.s., Czech Republic) in the dose of 1 mg/kg/day and 2nd type 5 alpha-reductase inhibitor Finasteride (Proscar, Merck Sharp & Dohme, The Netherlands) in the dose of 10 mg/kg/day in the stomach (via an intragastral sonde) for 18 days (from day 4), and also the well-known homeopathic drug Prostatine (OOO «Homeofarma», Russia) with 5 pellets into the stomach for 18 days. The rats in the control group received intramuscularly only an isotonic solution of sodium chloride (NaCl) in equivolume quantities.\nThe material was subjected to standard histological processing. For light-optical analysis, pieces of the PG were fixed with 10% neutral formalin, following which histological sections were prepared. The sections were stained according to Van Gieson, and also with hematoxyline and eosin. In addition to morphological description of the microsections, a quantitative evaluation of the most important morphological parameters of the PG for the purpose of objective assessment of the dynamics of morphological changes. A Leica DM2500 microscope with a digital photographic camera was used for morphometric analysis. The digital images were used to assess structural changes in the PG's tissues."}, "[2]": {"tested_on": "prostate gland (PG) in rats with the benign prostatic hyperplasia (BPH)", "type": "in vivo", "details": "for Mass of PG, mg At end of experiment / Mass of PG, mg Initial / MF PG (mass factor of the PG): rats with BPH", "description": "The effect of the new mixtures of peptides on the mass of the prostate of rats in the model of benign prostate hyperplasia caused by testosterone propionate, was studied on 98 white non-pedigree male rats (mass 220-280 g at the beginning of the experiment), and 10 white non- pedigree male rats with a mass of 22-26 g (acute toxicity was assessed in those animals in a separate series o experiments).\nJ. Med. Food., 2007, Vol. 10, No 4, p. 628-635; Liu H.P., Chen G.L., Liu P., Xu X.P. «Amlodipine alone or combined with terazosin improves lower urinary tract disorder in rat models of benign prostatic hyperplasia or detrusor instability: focus on detrusor overactivity\". BJU Int., 2009, Vol. 104, No 11, p. 1752-1757).\nas §1\nExtraction of the prostatic gland (PG) for morphological (light-optical) analysis was done both before and after the reproduction of BPH (on days 22 and 23). The rats were decapitated under general anesthesia with ether, following which the prostatic gland was extracted and weighed (analytical balance «Sartogosm LV 120-A», Russia, inaccuracy-0.5 mg)."}, "[3]": {"details": "1 mg/kg/day in stomach for 18 days"}, "[4]": {"details": "10 mg/kg/day in stomach for 18 days"}}, "note": "Read-outs that look alike come from different tables or passages of the source."}
{"smiles": "C[C@]12C=CC(=O)N[C@@H]1CC[C@@H]1[C@@H]2CC[C@]2(C)[C@@H](C(=O)Nc3cc(C(F)(F)F)ccc3C(F)(F)F)CC[C@@H]12", "note": "[Dutasteride]", "values": [{"measurement": "reduction of the size of the prostate", "setting": "prostate", "result": "more than 20%"}]}
{"smiles": "COc1cc2nc(N3CCN(C(=O)C4COc5ccccc5O4)CC3)nc(N)c2cc1OC", "note": "(stereo not drawn) [Doxazosin]", "values": [{"measurement": "COLL (score estimate of the content of collagen in the stroma, median)", "setting": "[1]; [3]", "result": 2}, {"measurement": "EPIT/LUMEN (ratio of share of epithelium to share of acinar lumens)", "setting": "[1]; [3]", "result": "36.62 ± 1.19"}, {"measurement": "EPIT/STR (ratio of share of epithelium to share of stroma)", "setting": "[1]; [3]", "result": "75.55 ± 1.34"}, {"measurement": "morphological picture of stroma", "setting": "[1]; [3]", "result": "Inflammation and edema were completely absent in the Doxazosin group, but there were zones of fibrosis"}, {"measurement": "structure (morphology) of epithelium", "setting": "[1]; [3]", "result": "acinuses covered with epithelium with normal morphology alternated with acinuses with hyperplastic epithelium"}, {"measurement": "EPIT (volume fraction of the epithelium)", "setting": "[1]; [3]", "result": "19.79 ± 0.84", "unit": "%"}, {"measurement": "LUMEN (volume fraction of acinar lumens)", "setting": "[1]; [3]", "result": "54.03 ± 1.05", "unit": "%"}, {"measurement": "STROMA (volume fraction of stroma)", "setting": "[1]; [3]", "result": "26.19 ± 0.93", "unit": "%"}, {"measurement": "Mass of PG, mg At end of experiment", "setting": "[2]; [3]", "result": "7.7e+10 ± 7e+09", "unit": "pg"}, {"measurement": "Mass of PG, mg Initial", "setting": "[2]; [3]", "result": "2.38e+11 ± 1.8e+10", "unit": "pg"}, {"measurement": "MF PG (mass factor of the PG)", "setting": "[2]; 1 mg/kg/day in the stomach for 18 days", "result": "virtually unreduced"}]}
{"smiles": "CC(C)(C)NC(=O)[C@H]1CC[C@H]2[C@@H]3CC[C@H]4NC(=O)C=C[C@]4(C)[C@H]3CC[C@]12C", "note": "[Finasteride]", "values": [{"measurement": "COLL (score estimate of the content of collagen in the stroma, median)", "setting": "[1]; [4]", "result": 1}, {"measurement": "EPIT/LUMEN (ratio of share of epithelium to share of acinar lumens)", "setting": "[1]; [4]", "result": "47.31 ± 1.49"}, {"measurement": "EPIT/STR (ratio of share of epithelium to share of stroma)", "setting": "[1]; [4]", "result": "53.41 ± 1.55"}, {"measurement": "morphological picture of stroma", "setting": "[1]; [4]", "result": "highly edemous"}, {"measurement": "structure (morphology) of epithelium", "setting": "[1]; [4]", "result": "caused injury and death of epithelial cells"}, {"measurement": "EPIT (volume fraction of the epithelium)", "setting": "[1]; [4]", "result": "20.06 ± 0.95", "unit": "%"}, {"measurement": "LUMEN (volume fraction of acinar lumens)", "setting": "[1]; [4]", "result": "42.40 ± 1.17", "unit": "%"}, {"measurement": "STROMA (volume fraction of stroma)", "setting": "[1]; [4]", "result": "37.55 ± 1.14", "unit": "%"}, {"measurement": "reduced the mass of the PG (times, compared to the control)", "setting": "[2]; 10 mg/kg/day in stomach for 18 days, p<0,05", "result": 1.4, "unit": "times"}, {"measurement": "MF PG (mass factor of the PG)", "setting": "[2]; [4]", "result": "65±5 mg/100 r mass of the rat"}, {"measurement": "Mass of PG, mg At end of experiment", "setting": "[2]; [4]", "result": "6.5e+10 ± 5e+09", "unit": "pg"}, {"measurement": "Mass of PG, mg Initial", "setting": "[2]; [4]", "result": "1.99e+11 ± 1.4e+10", "unit": "pg"}]}
